According to publication PMC10723784, “Investigation of the cytotoxicity induced by cannabinoids on human ovarian carcinoma cells” (Pharmacology Research & Perspectives, 2023):
Read-outs that look alike come from different tables or passages of the source.

Experiments:
A2780 cells [1] = test: Mitochondrial membrane potential assay (JC-1), A2780 cells; format: cell-based, human; conditions: A2780, 10-50 μM, 24 h, dose-dependent
Method: (§1) The mitochondrial membrane potential assay was performed to detect the loss in mitochondrial potential (de‐polarization), which is a vital step in apoptosis.[36] Cells were seeded in T25 flasks at 4 × 10^5 cells per flask and were incubated for 48 h or until they reached confluency. After the incubation time elapsed, drugs at concentrations of 10, 30, and 50 μM or vehicle were added to the flasks and further incubated for 24 h. After 24 h elapsed, the cells were harvested and suspended in PBS. Cell viability and number were determined by the cell viability assay using via1 cassettes on NC‐3000 system. The samples were diluted in PBS to 1 × 10^6 cells/mL and 2.5 μg/mL of JC‐1 dye was added to each sample. JC‐1 is a […] dye, which stains as fluorescent red as it aggregates in the mitochondrial matrix. In the absence of mitochondrial membrane potential, JC‐1 localizes in the cytosol in its fluorescent green form. Following the addition of JC‐1, the cells were incubated for 10–30 min at 37°C. […] 12.5 μL of samples were loaded on to an A‐8 slide and were analyzed using the NC‐3000 image cytometry. The degree of apoptosis (in proportional to the loss in mitochondrial membrane potential) was measured using a scatter plot of JC‐1 red fluorescence versus JC‐1 green fluorescence.

A2780/CP70 cells [2] = test: Mitochondrial membrane potential assay (JC-1), A2780/CP70 cells; format: cell-based, human; conditions: A2780/CP70, 10-50 μM, 24 h, dose-dependent
Method: as §1

A2780 cells [3] = test: Cell cycle analysis (DAPI, NC-3000), A2780 cells; format: cell-based, human; conditions: 48 h
Method: Cells were seeded in T25 flasks at 4 × 10^5 cells per flask and were incubated for 48 h or until they reached confluency. […] After the incubation time elapsed cells were suspended in PBS with a density closer to 1 × 10^6cells/mL. The cells were washed twice with 1× PBS before the addition of 250 μL of lysis buffer (solution 10) supplemented with 10 μg/mL DAPI (solution 12) was added to the samples and incubated for 5 min at 37°C. After incubation, 250 μL of stabilization buffer (solution 11) was added. 12.5 μL of samples were loaded on to an A‐8 slide and were analyzed using the NC‐3000 system.

A2780/CP70 cells [4] = test: MTT cytotoxicity assay, A2780/CP70 cells; conditions: for IC50: Homo sapiens, read-out: IC50 cytotoxicity
Method: In separate experiments, cells were seeded in 96‐well plates and after 24 h elapsed they were exposed to different concentrations of drugs or vehicle. Cells were then left in the incubator for a further 24 or 48 h. Then the media was replaced with fresh media containing no drug and the cells were left in the incubator. MTT assay was performed after 96 h elapsed from the time when cells were exposed to drugs or vehicle.
The cells were then left in the incubator and MTT assay was performed 96 h following the initial exposure to the drugs.
The selective index (SI) is the ratio of mean IC50 values for non‐cancer cells to cancer cells. […] While the isobologram can be considered predominantly as a graphical depiction of drug interactions, the combination index (CI) is a quantitative representation. It relates the actual drug concentration in the combination to the concentration of the single drug that achieves the same effect. […] Here, CI analysis was used to investigate combinations at 50% cytotoxicity. To this end the IC50 of the viability dose–response curves were determined by non‐linear regression curve fit analysis (GraphPad Prism, v5.00).
CIA+B is the combination index of A and B; C A the concentration of A applied in combination; C B the concentration of B applied in combination; IC50 A the IC50 of drug A when it was applied individually to the cells; IC50 B = IC50 of drug B when it was applied individually to the cells.

**Q.** With `CCCCCc1cc(O)c(C/C=C(\C)CCC=C(C)C)c(O)c1` [CBG, cannabigerol] as the molecule, how does the “Percentage of apoptotic cells (loss of mitochondrial membrane potential)” value (A2780 cells [1]) read?
**A.** induced an increase in the percentage of apoptotic cells

**Q.** What about the “Percentage of apoptotic cells (loss of mitochondrial membrane potential)” value (A2780/CP70 cells [2]) of the same molecule?
**A.** induced an increase in the percentage of apoptotic cells

**Q.** And the “Cells in G0/G1 phase” value (A2780 cells [3]; A2780, 10 μM)?
**A.** 79.1 ± 0.4%

**Q.** What about the “Cells in G0/G1 phase” value (A2780 cells [3]; A2780, 30 μM) of the same molecule?
**A.** 80.2 ± 1.3%

**Q.** What about the “Cells in G0/G1 phase” value (A2780 cells [3]; A2780, 50 μM) of the same molecule?
**A.** 67.6 ± 1.1%

**Q.** What about the “Cells in subG1 phase” value (A2780 cells [3]; A2780, 50 μM) of the same molecule?
**A.** 8.7 ± 0.6%

**Q.** What about the IC50 (A2780/CP70 cells [4]; A2780/CP70, 24 h) of the same molecule?
**A.** 17.7 ± 0.1 µM

**Q.** And the IC50 (A2780/CP70 cells [4]; A2780/CP70, 48 h)?
**A.** 15.4 ± 0.7 µM

**Q.** And the IC50 (A2780/CP70 cells [4]; A2780/CP70, 72 h)?
**A.** 12.3 ± 1.4 µM

**Q.** And the IC50 (A2780/CP70 cells [4]; A2780/CP70, 96 h)?
**A.** 7.1 ± 0.8 µM

**Q.** And the Selectivity index (A2780/CP70 cells [4]; IC50 ARPE19 / IC50 A2780/CP70, 24 h)?
**A.** 1.81

**Q.** And the Selectivity index (A2780/CP70 cells [4]; IC50 ARPE19 / IC50 A2780/CP70, 48 h)?
**A.** 1.37

**Q.** What about the Selectivity index (A2780/CP70 cells [4]; IC50 ARPE19 / IC50 A2780/CP70, 72 h) of the same molecule?
**A.** 1.56

**Q.** And the Selectivity index (A2780/CP70 cells [4]; IC50 ARPE19 / IC50 A2780/CP70, 96 h)?
**A.** 2.45

**Q.** And the Selectivity index (A2780/CP70 cells [4]; IC50 PNT2 / IC50 A2780/CP70, 48 h)?
**A.** 1.48

**Q.** What about the Selectivity index (A2780/CP70 cells [4]; IC50 PNT2 / IC50 A2780/CP70, 72 h) of the same molecule?
**A.** 1.59

**Q.** What about the Selectivity index (A2780/CP70 cells [4]; IC50 PNT2 / IC50 A2780/CP70, 96 h) of the same molecule?
**A.** 2.56
